According to US9861102B2, “Methods for disinfection” (Markesbery Blue Pearl LLC, priority 2016, dated 2018):

Tested on: Bacillus subtilis bacteria
Assay: Closed-system control experiments of peracid reactant compounds, percent kill
Type: cell-based
Conditions: for Percent Kill: B. subtilis agar plates, electrostatic spray, 2-micron thickness, concentrations as in Example 2, charge as indicated
Description: The electrostatic spray device used was a Hurricane ES™ Portable Electrostatic Aerosol Applicator, modified to selectively impart either a positive, negative, or neutral charge when dispersing an aqueous composition containing a peracid reactant compound. In experiments where multiple aqueous compositions containing peracid reactant compounds were dispersed, the compositions were dispersed sequentially, and all aqueous compositions were dispersed with either a positive, negative, or neutral charge, as indicated below in Table 5. […] In all experiments, the percent by weight of distilled water was adjusted appropriately in response to the addition or deletion of a peracid reactant compound. […] Processing and handling of the agar plates containing the B. subtilis bacteria was conducted according to the procedure used in Example 3.

Row | SMILES | Percent Kill | effect on bacterial growth (ethanol on its own)
1 | CC(=O)O [Exp 8, Acetic Acid] | 6% | –
2 | CCO [Exp 9, Ethanol] | 0% | no effect
3 | OO [Exp 7, Hydrogen Peroxide] | 72% | –
